Molecules are shown by their SMILES. Where two headings read alike, the source gives them in different places.

Test [1] concerns the target T1, hM3 receptor (hM3レセプター) (Homo sapiens, UniProt P20309).
T1 construct: expressed in transfected cells
Put plainly: Assay 2C: blockade of agonist-mediated calcium release via FLIPR assay. The class given is cell-based.

In test [2] the test system is ACh-induced bronchoconstriction (ACh誘導性気管支収縮). Put plainly: Assay 3: duration of bronchoprotection in guinea pig model of acetylcholine-induced bronchoconstriction. The class given is in vivo. The conditions noted are these: inhalation, 1.5 h post-dose.
Test [3] addresses T2, M3 muscarinic receptor subtype (M3ムスカリン性レセプターサブタイプ) (Homo sapiens, UniProt P20309).
T2 construct: expressed in transfected cells; membrane preparation
In words: Assay 1: radioligand binding assay ([3H]-NMS displacement).

T2 sequence (P20309 whole entry): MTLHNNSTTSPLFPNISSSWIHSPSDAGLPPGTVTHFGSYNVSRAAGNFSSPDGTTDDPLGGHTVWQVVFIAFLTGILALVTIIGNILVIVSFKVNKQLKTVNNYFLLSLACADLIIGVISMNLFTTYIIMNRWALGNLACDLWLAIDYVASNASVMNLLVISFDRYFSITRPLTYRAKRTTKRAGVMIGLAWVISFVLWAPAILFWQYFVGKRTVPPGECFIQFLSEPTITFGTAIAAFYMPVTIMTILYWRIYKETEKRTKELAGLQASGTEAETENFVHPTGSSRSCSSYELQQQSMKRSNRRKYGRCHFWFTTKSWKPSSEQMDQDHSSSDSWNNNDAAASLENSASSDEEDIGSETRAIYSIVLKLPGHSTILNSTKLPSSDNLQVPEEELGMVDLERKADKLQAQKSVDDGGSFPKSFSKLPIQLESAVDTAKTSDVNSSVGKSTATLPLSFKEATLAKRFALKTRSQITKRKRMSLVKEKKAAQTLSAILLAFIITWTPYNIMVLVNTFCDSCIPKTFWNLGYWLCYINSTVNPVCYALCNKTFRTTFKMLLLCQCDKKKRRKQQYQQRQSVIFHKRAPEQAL
T1 sequence (P20309 whole entry): as above

For orientation: Ki means the dissociation constant of the complex between target and ligand, obtained from inhibition or displacement. In the case of `CN(CCN1CCC(OC(=O)Nc2ccccc2-c2ccccc2)CC1)C(=O)c1ccc(CN2CCC(C(N)=O)CC2)cc1` [実施例1, ビフェニル−2−イルカルバミン酸 1−(2−{[4−(4−カルバモイルピペリジン−1−イルメチル)ベンゾイル]メチルアミノ}エチル)ピペリジン−4−イルエステル], the Ki in test [1] and in test [3] was under 5 nM each time. In test [2], the “PD2(50)” value is under 200 µg/mL.

On to `CCN(CCN1CCC(OC(=O)Nc2ccccc2-c2ccccc2)CC1)C(=O)c1ccc(CN2CCC(C(N)=O)CC2)cc1` [実施例2, ビフェニル−2−イルカルバミン酸 1−(2−{[4−(4−カルバモイルピペリジン−1−イルメチル)−ベンゾイル]エチルアミノ}エチル)ピペリジン−4−イルエステル], for which the Ki in test [3] (M3 subtype, [3H]-NMS displacement, CHO cell membranes, printed as less than about, read-out: Ki) was under 5 nM.

Values taken from patent JP2011219500A, “ムスカリンレセプターアンタゴニストとしての有用なビフェニル化合物” (Theravance Inc, priority 2011, dated 2011).
